Test results published in article PMC10788917 (Journal of Medicinal Chemistry, 2023).

Columns and labels:
[1] = target: T1, HDAC8 (Homo sapiens, UniProt Q9BY41); assay: Covalent labeling, tryptic digestion and MS/MS; type: binding
T1 construct: one additional N-terminal residue 'H' (His) (N)
T1 sequence (Q9BY41 1-377): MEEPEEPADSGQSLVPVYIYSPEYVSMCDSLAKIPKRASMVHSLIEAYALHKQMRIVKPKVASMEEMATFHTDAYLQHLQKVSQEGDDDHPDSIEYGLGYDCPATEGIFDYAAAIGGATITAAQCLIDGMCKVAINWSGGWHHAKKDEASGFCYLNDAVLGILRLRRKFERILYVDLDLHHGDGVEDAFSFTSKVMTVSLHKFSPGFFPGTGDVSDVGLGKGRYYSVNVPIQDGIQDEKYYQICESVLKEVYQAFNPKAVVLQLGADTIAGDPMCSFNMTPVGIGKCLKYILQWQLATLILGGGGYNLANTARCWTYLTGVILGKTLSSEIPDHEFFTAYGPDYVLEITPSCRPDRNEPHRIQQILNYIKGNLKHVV
Experimental: The covalent labeling procedure was conducted as described previously with slight modifications.[31] First, 25 μM HDAC8 was treated with 250 μM covalent probes for 1 h at 30 °C in the assay buffer described above. The protein was then precipitated by the addition of 10% TCA and then centrifuged at 18000g for 15 min. The supernatant was removed, and the dry pellet was diluted in buffer [50 mM NH4HCO3 (pH 7.8)]. After the fragment labeling was completed, 50 μL of the sample and 10 μL of a 0.2% (w/v) RapiGest SF (Waters, Milford, MA) solution buffered with 50 mM ammonium bicarbonate were mixed (pH 7.8), 3.3 μL of 45 mM DTT in 100 mM NH4HCO3 was added to reduce artificial oxidized cysteine residues, and the mixture was kept at 37.5 °C for 30 min. After the sample was cooled to room temperature, reduction was quenched, and nascent thiols were alkylated by adding 4.16 μL of 100 mM iodoacetamide in 100 mM NH4HCO3. Samples were placed in the dark at room temperature for 30 min. The reduced and alkylated protein was then digested with 10 μL (1 mg/mL) of trypsin (the enzyme:protein ratio was 1:10) (Sigma, St. Louis, MO). The sample was incubated at 37 °C overnight. To degrade the surfactant, 7 μL of a formic acid (500 mM) solution was added to the digested protein sample, a final concentration of 40 mM (pH ≈2) was obtained, and the mixture was further incubated at 37 °C for 45 min. For LC-MS analysis, the acid-treated sample was centrifuged for 5 min at 13 000 rpm and the supernatant was pipetted into a microvial.
For procedure A, an AB Sciex 6500 QTRAP hybrid triple quadruple linear ion trap mass spectrometer, equipped with a Turbo V ion source in electrospray mode and an Agilent 1100 Binary Pump HPLC system (Agilent Technologies, Waldbronn, Germany) consisting of an autosampler, was used for LC-MS/MS analysis. Data acquisition and processing were performed using Analyst version 1.6.2 (AB Sciex Instruments). Chromatographic separation was achieved by using the Discovery BIO Wide Pore C-18-5 column (250 mm × 2.1 mm, 5 μm, 300 Å). The sample was eluted with a gradient of solvent A (0.1% formic acid in water) and solvent B (0.1% formic acid in ACN). The flow rate was set to 0.2 mL min^–1. The initial process for separation was as follows: 5% B for 7 min, followed by a linear gradient to 90% B by […], 90% B from 60 to 64 min, and from 64 to 65 min back to the initial condition with 5% eluent B retained for 10 min. The injection volume was 10 μL. An information-dependent acquisiton (IDA) LC-MS/MS experiment was used to identify the modified tryptic peptide fragments. An enhanced MS scan (EMS) was used as a survey scan, and an enhanced product ion scan (EPI) was the dependent scan. Precursor ion selection criteria: ions greater than m/z 400, which exceeds 106 counts, exclude former target ions for 30 s after two occurrence(s). The scan rates in both survey and dependent scans were 1000 Da/s. Nitrogen was used as the nebulizer gas (GS1), heater gas (GS2), and curtain gas with the optimum values set at 50, 40, and 40 (arbitrary units), respectively. The source temperature was 350 °C, and the ion spray voltage was set at 5000 V. The declustering potential value was set to 150 V. The collision energy in EPI experiments was set to rolling collision energy mode, where the actual value was set on the basis of the mass and charge state of the selected ion. GPMAW version 4.2 was used to analyze the large number of MS-MS spectra and identify the modified tryptically digested peptides.
For procedure B, to obtain more precise information about the structure, samples were further analyzed by a Triple TOF 5600+ hybrid Quadrupole-TOF LC/MS/MS system (Sciex) equipped with a DuoSpray IonSource coupled with a Shimadzu Prominence LC20 UFLC system consisting of a quaternary pump, an autosampler, and a thermostated column compartment. Data were acquired and processed using Analyst TF version 1.7.1 (AB Sciex Instruments). […]

[2] = target: T1, HDAC8; assay: Kinetic parameters of inactivation from time-dependent IC50; type: biochemical
Experimental: Time-dependent IC50 values were obtained using the previously described enzyme activity assay after varying preincubation times.

[3] = target: HDAC4 (Homo sapiens, UniProt P56524); assay: HDAC4 biochemical assay; settings: preincubation 1 h, 1 nM HDAC4
Experimental: The enzyme activity assay was performed in assay buffer [25 mM Tris-HCl (pH 8.0), 50 mM NaCl, and 0.001% (v/v) Pluronic F-68] in black half-area 96-well microplates (Greiner Bio-One). […] The reaction was initiated by the addition of 20 μM Boc-Lys(TFA)-AMC (Bachem). […] The deacetylated substrate was cleaved with 0.42 mg/mL trypsin to release fluorescent 7-amino-4-methylcoumarin (AMC), which was detected with a microplate reader (PHERAstar FS […]) with fluorescence excitation at 360 nm and emission at 460 nm. IC50 values were calculated by generating dose–response curves in GraphPad Prism 6 and fitting those to a four-parameter logistic model.

Chain of HDAC4 (P56524 whole entry, species assumed): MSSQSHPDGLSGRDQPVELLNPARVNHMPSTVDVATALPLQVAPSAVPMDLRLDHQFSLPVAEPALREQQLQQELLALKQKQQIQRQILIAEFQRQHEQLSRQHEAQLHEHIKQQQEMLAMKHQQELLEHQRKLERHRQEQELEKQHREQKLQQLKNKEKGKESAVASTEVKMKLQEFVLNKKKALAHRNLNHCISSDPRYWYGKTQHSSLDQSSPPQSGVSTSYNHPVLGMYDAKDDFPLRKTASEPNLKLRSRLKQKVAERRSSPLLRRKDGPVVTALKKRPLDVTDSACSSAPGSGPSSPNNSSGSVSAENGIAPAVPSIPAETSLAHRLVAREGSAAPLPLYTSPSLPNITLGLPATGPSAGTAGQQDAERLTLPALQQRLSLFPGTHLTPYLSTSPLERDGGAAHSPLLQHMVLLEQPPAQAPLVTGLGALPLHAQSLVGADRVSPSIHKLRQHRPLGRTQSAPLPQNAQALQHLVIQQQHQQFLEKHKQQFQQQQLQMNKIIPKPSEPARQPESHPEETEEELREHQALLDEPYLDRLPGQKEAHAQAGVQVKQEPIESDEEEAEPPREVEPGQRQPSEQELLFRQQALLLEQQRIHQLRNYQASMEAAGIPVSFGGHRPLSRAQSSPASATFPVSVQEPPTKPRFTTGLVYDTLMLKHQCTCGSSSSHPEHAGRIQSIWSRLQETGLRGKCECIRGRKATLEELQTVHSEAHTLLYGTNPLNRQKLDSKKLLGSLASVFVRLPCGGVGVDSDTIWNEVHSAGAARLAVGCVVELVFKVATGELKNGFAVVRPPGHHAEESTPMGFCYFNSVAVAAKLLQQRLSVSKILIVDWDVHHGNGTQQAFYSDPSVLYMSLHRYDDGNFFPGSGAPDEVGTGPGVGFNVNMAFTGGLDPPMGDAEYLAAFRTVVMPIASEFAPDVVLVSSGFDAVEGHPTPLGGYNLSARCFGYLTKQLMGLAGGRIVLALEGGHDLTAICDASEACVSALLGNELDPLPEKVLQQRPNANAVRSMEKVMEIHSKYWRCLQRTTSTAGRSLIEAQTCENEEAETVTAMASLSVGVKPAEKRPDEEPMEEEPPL

SMILES	MS/MS: modified HDAC8 peptide [148-165] ([1]; 25 μM HDAC8, 250 μM probe, 1 h)	MS/MS: modified HDAC8 peptide [241-250] ([1]; 25 μM HDAC8, 250 μM probe, 1 h)	MS/MS: modified HDAC8 peptide [260-287] ([1]; 25 μM HDAC8, 250 μM probe, 1 h)	MS/MS: modified HDAC8 peptide [1-34] ([1]; 25 μM HDAC8, 250 μM probe, 1 h)	other results
C[n+]1ccc(I)cc1 [C3+]	modified	modified	modified		MS/MS: modified HDAC8 peptide [33-83] ([1]; 25 μM HDAC8, 250 μM probe, 1 h): modified
C[n+]1cccnc1Cl [D1+]	modified	modified		modified	
C[n+]1cccnc1Br [D2+]	modified	modified			
C#Cc1nccc[n+]1C [D6+]				modified	
C#Cc1c[n+](C)ccc1NC(=O)CC(=O)N1Cc2ccccc2C1.[I-] [compound 3, 3-Ethynyl-4-[3-(isoindolin-2-yl)-3-oxopropanamido]-1-methylpyridin-1-ium Iodide]					kinact/KI ([2]; HDAC8): 1570 M⁻¹ s⁻¹; Ki ([2]; HDAC8, inactivation constant): 3.2 µM; kinact ([2]; HDAC8, time-dependent IC50, Krippendorff approach): 0.0051 s⁻¹; IC50 [3]: 23.1 µM; covalent labeling of HDAC8 cysteine by tryptic digestion and MS/MS [1]: proved Cys153 covalent labeling

Continued, in another order:

MS/MS: modified HDAC8 peptide [148-165] ([1]; 25 μM HDAC8, 250 μM probe, 1 h)	MS/MS: modified HDAC8 peptide [241-250] ([1]; 25 μM HDAC8, 250 μM probe, 1 h)	MS/MS: modified HDAC8 peptide [260-287] ([1]; 25 μM HDAC8, 250 μM probe, 1 h)	MS/MS: modified HDAC8 peptide [1-34] ([1]; 25 μM HDAC8, 250 μM probe, 1 h)	SMILES	other results
modified	modified			C[n+]1ccccc1I [A3+]	
modified	modified		modified	C#Cc1cc[n+](C)cc1 [C6+]	
modified	modified	modified	modified	C[n+]1cccnc1I [D3+]	
modified		modified	modified	C[n+]1cncc(Br)c1 [F2+]	
modified		modified	modified	C[n+]1cncc(I)c1 [F3+]	MS/MS: modified HDAC8 peptide [327-357] ([1]; 25 μM HDAC8, 250 μM probe, 1 h): modified
modified		modified	modified	C#Cc1c[n+](C)ccn1 [G6+]	
